Consider six molecules from patent US5015661A, “Chromanes and their pharmaceutical compositions and methods” (Hoffmann-La Roche Inc., priority 1989, dated 1991).

Counter-ions that a name gives are not always drawn.

The target in one experiment is superoxide-dependent, iron-promoted lipid peroxidation of native rat heart cardiac lipid liposomes. Kind of experiment: Lipid peroxidation inhibition (in vitro testing of antiperoxidative agents, ANTI-OX), hypoxanthine-xanthine oxidase-Fe3+.ADP, rat cardiac liposomes, MDA equivalents. To be noted: 60 min, 37° C., screened at 1.0 μM, IC50 determined if inhibition ≥ 50%, read-out: ANTI-OX IC-50. In kind it is biochemical. Here is the method: The test system employs hypoxanthine-xanthine oxidase (XO)-Fe^3+. ADP as the free radical generator and purified, native rat-heart membrane phosphoglyceride in Hepes-KCl buffer, pH 7.4, as the substrate. Inhibition of superoxide-dependent, iron-promoted lipid peroxidation in the linear reaction phase (after 1 hour of reaction) is measured as the net formation of thiobarbituric acid (TBA)-reactive material. In this system, the TBA-reactive material, isolated by HPLC, is exclusively (>95%) malondialdehyde (MDA), a fragmentation end-product arising from fatty acyl hydroperoxides and cyclic endoperoxides. […]
a) Isolation and purification of Rat Cardiac Lipid
Conscious male Sprague-Dawley rats (~275g) maintained on a normal rodent diet were decapitated. The hearts were rapidly removed and perfused via the aorta with ice-cold 10 mM Hepes buffer, pH 7.4. The aorta and atria were removed, and the ventricular tissue was blotted and weighed (wet weight). The hearts were minced on ice with scissors and finally homogenized (100 mg tissue/ml ice-cold buffer) for 15 seconds (3×5 seconds) with a Tekmar Tissumizer at "maximal" setting. The homogenate was filtered through 4-ply cheesecloth, and homogenate lipids were extracted and purified by a modified Bligh-Dyer procedure (M.D. Marshall and M. Kates, Biochem. Biophys. Acta 260, 558 (1972). The cardiac lipids were stored in CHCl3 under nitrogen at -20° C. […]
b) Preparation of Cardiac Liposomes
Liposomes were prepared from extracted and purified, native rat heart cardiac lipid and were used as substrate for free-radical attack. Cardiac lipid (in CHCl3) was placed in a glass flask and evaporated to dryness under nitrogen at room temperature; the flask was gently rotated during evaporation to yield a thin, dry lipid film. The lipid was taken up in 10 mM Hepes-0.145M KCl, pH 7.4, and was resuspended by indirect an aerobic sonification for 15 minutes at room temperature. The liposome suspension was used immediately. […]
c) preparation of Fe^3+ -ADP Chelate
A chelate was formed in Hepes-KCl buffer between Fe^3+ (1.0mM FeCl3, final concentration) and ADP (10mM, final concentration) at pH 7.4 with stirring at room temperature. Chelation was allowed to proceed for 90 minutes prior to use. The chelate was prepared fresh for each days experiments to ensure iron solubility, effective chelation, and valence state. […]
d) Thiobarbituric Acid Reaction or Determination of Malondialdehvde Equivalents Malondialdehyde (MDA) equivalents were measured as thiobarbituric acid (TBA)-reactive material by the following modification of published methods. The reaction mixture. prepared fresh daily, contained water: BHT ([…] BHT in absolute ethanol): TBA (1.5% TBA in 0.2M Tris, pH 7.0) in the volume ratio 1:1:5. To each 1.0 ml of peroxidation reaction assayed (see below), 0.35 ml reaction mixture was added. After thorough mixing, the tubes were incubated in an 80° C. shaking water bath for 30 minutes. After this time, the tubes were plunged into an ice water bath, and the reaction was immediately stopped with 0.5 ml ice-cold 91% TCA followed by 2.0 ml CHCl3 After centrifugation for 30 minutes at 2000 rpm in a Sorval HL-8 rotor (4° C.), the absorbance of the washed, pink upper phase was read at 532 nm. A standard curve (0.8-40.0 nmol MDA) was run with every assay. For each curve, MDA was freshly prepared by acidification of 1,1,3,3 -tetraethoxypropane with 75% TCA-2.3N HCl (0.15 ml acid mixture with 1.0 ml suitably diluted tetraethoxypropane). Computer-assisted regression analysis of the standard curve was used to quantify the molar amounts of MDA equivalents in the experimental samples. […]
e) Lipid peroxidation Reaction
Cardiac liposomes were subjected to superoxidedependent. iron-promoted peroxidation in glass vessels to avoid the well-known antioxidant effects of many common polymerizing agents used to fabricate plastic labware. […]
As to `CCCc1cc(C#CC2(C)CCc3c(C)c(O)c(C)c(C)c3O2)ccc1O` (racemic) [Example 37, rac-3,4-Dihydro-2-[(4-hydroxy-3-propylphenyl)ethynyl]-2,5,7,8-tetramethyl-2H-1-benzopyran-6-ol], the IC50 was > 1000 nM.

The next experiment has as its target T1, Δ^5 -lipoxygenase from rat basophilic leukemia (RBL-1) cells (Rattus norvegicus, UniProt P12527).
T1 construct: endogenous in cells; host or cells: RBL-1 rat basophilic leukemia cells (ATCC CRL 1378); 113,000×g supernatant (cytosolic fraction)
T1 sequence (P12527 1-673): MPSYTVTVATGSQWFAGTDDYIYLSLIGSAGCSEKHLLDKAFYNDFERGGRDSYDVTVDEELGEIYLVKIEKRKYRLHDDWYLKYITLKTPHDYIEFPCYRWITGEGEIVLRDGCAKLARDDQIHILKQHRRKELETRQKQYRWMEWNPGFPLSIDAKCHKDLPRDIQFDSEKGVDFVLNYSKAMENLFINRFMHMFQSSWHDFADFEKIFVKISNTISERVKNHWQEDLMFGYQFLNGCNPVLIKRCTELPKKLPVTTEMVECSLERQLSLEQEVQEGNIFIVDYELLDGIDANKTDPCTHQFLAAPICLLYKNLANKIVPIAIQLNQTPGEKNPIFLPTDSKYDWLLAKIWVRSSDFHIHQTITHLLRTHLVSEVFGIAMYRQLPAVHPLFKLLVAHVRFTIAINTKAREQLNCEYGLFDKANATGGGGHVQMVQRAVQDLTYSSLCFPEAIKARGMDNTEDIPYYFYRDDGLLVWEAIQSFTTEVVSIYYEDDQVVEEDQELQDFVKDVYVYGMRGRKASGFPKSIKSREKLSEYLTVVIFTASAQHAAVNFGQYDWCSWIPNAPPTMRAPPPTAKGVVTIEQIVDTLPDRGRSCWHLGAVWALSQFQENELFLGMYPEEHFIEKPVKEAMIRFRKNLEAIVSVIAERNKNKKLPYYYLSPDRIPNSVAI
The experiment can be described thus: In vitro test for Δ^5 -lipoxygenase inhibitors (5-LO), RBL-1 cell enzyme, 5-HETE radioimmunoassay. In kind it is biochemical. Conditions: RBL-1 5-LO; 10 min preincubation; 8.25 μM arachidonic acid, 10 min at 37° C.; 5-HETE formation; read-out: 5-LO IC-50. The method, then:
IN VITRO TEST FOR Δ^5 -LIPOXYGENASE INHIBITORS Compounds of formula I of the invention were tested for their effect on Δ^5 -lipoxygenase from rat basophilic leukemia (RBL-1) cells. Materials. RBL-1 cells (CRL 1378) were obtained from the American TYpe Culture Collection, Rockville, MD. DMEM and glutamine were purchased from Flow Labs, McLean, VA. FBS (Gibco, Grand Island, NY) was heat-inactivated for 1 hour at 56° C. Reagents for protein determinations were obtained from Biorad, Rockville Center, NY. Arachidonic acid (approx. 99%), ATP (disodium slat), BHT, dextran (clinical grade), tetrasodium EDTA, gelatin, gentamycin sulfate solution, reduced glutathione, 1 M HEPES buffer, indomethacin, NaCl, reduced NADpH, Trizma 7.2, and Trizma 8.5 were purchased from Sigma Chemical, St. Louis, MO. CaCl2 dihydrate, Norit A charcoal, and citric acid monohydrate were obtained from Fisher Scientific, Pittsburgh, PA. […] MA. A synthetic 5-HETE standard was supplied by Dr. M. Rosenberger, Dept. of Medicinal Chemistry, Hoffmann-La Roche, Nutley, NJ; [see Corey, E.J., and Hashimoto, S. (1981 ) Tet. Letters, 22, 299-302 for method of preparation]. Ecoscint liquid sointillation fluid was purchased from National Diagnostics, Sommerville, NJ. Isolation of 5-lipoxygenase. […] Approximately 7-9 days after thawing, RBL-1 cells growing in log phase were seeded at a density of 7500 viable cells/ml in a closed 89-liter spinner flask. The cells were stirred constantly for 3-4 days at 37° C. until they reached a density greater than 500,000/ml but less than 800,00/ml. RBL-1 cells were harvested by centrifugation at 4° C. at 1500×g for 10 minutes and were washed 3 times with ice cold 0.05 M tris-HCl, pH 7.2, tetrasodium EDTA (buffer 1). The cells were washed last in 0.05 M Tris-HCl containing 14 μM indomethacin, 1 mM glutathione, 1.5 mM NaCl, and 1 mM tetrasodium EDTA (buffer 2), resuspended at a density of 5×108'/ml (approximately 10 ml) and disrupted manually at 4° C. using a 40 ml Dounce (type A pestle) homogenizer. After 5 minutes of homogenization. 95% cell lysis was confirmed by phase contrast microscopy. The broken cells were diluted 1:2 with buffer 2 and centrifuged at 12,380×g for 10 minutes at 4° C. to pellet cellular debris and granules. The 12,380×g supernatant was centrifuged at 113,000×g for 60 minutes to pellet microsomes. The high-speed supernatant (5.9±0.48 mg/ml protein) was frozen immediately in 1 ml aliquots using a dry ice/acetone bath. The isolated cytosolic fraction was stored in liquid N2 for up to 8 weeks without loss of 5-LO enzyme activity. Lipoxygenase Assay. Compounds Were dissolved at 25 mM concentration in DMSO, then diluted to final concentrations using 95% ethanol. For a typical enzyme assay, the partially purified 5-LO preparation was preincubated with drug or vehicle for 10 minutes at 30° C. The assay tubes were then transferred at a 37° C. water bath where they received arachidonic acid (8.25 μM final concentration) to initiate 5-LO activity. In addition to enzyme and substrate, each reaction tube contained: 12.5 μmoles of Tris-HCl (pH 7.2), 25 nmoles glutathione, 0.35 nmoles indomethacin and 1.25 μmoles of CaCl2 and ATP to yield a total of volume of 250 μl. The enzyme reaction was terminated after 10 minutes by the addition of 75μl […] citric acid to yield pH 3.5. The samples were immediately cooled on ice and neutralized by dilution with 0.05 M Tris-HCl, pH 8.5, which contained 25 mg/1 BHT. A boiled cytosol control was placed at the end of each assay to measure non-enzymatic oxidation of arachidonic acid. The mean specific activity of the 5-LO enzyme preparation was approximately 66.16±14.39 pmol 5-HETE/min/mg protein. Radioimmunoassay for 5-HETE. Under the assay conditions described, the 5-LO catalyzed the conversion of arachidonic acid to 5-HPETE which, as a consequence o peroxidase activity, was reduced to 5-HETE. A specific radioimmunoassay was employed to quantitate the amount (pmoles) of 5-HETE formed during the enzyme reaction. […]
With `Cc1c(C)c2c(c(C)c1O)CCC(C)(C#Cc1ccccc1NC(=O)C(F)(F)F)O2` (racemic) [Example 44, rac-2,2,2-Trifluoro-N-{2-[(3,4-dihydro-6-hydroxy-2,5,7,8-tetramethyl-2H-1-benzopyran-2-yl)ethynyl]phenyl}acetamide], the IC50 worked out at 10 nM.
Consider `Cc1c(C)c2c(c(C)c1O)CCC(C)(C#Cc1ccc3c(c1)NCCO3)O2` (racemic) [Example 47, rac-2-[(3,4-dihydro-2H-1,4-benzoxazine-6-yl)ethynyl]-3,4-dihydro-2,5,7,8-tetramethyl-2H-1-benzopyran-6-ol hydrochloride], for which the IC50 turned out to be 18 nM.
Still for that read-out and setting: the result for `COc1cc(CN)cc(CCC2(C)CCc3c(C)c(O)c(C)c(C)c3O2)c1O` (racemic) [Example 68, rac-{2-[5-(Aminomethyl)-2-hydroxy-3-methoxyphenyl]ethyl}-3,4-dihydro-2,5,7,8-tetramethyl-2H-1-benzopyran-6-ol hydrochloride] reads 70 nM; that for `CC(=O)Oc1cc(CCC2(C)CCc3c(C)c(O)c(C)c(C)c3O2)ccc1O` (racemic) [Example 67, rac-4-[2-(3,4-Dihydro-6-hydroxy-2,5,7,8-tetramethyl-2H-1-benzopyran-2-yl)ethyl]-1,2-benzenediol-2-acetate], 38 nM; that for `Cc1c(C)c2c(c(C)c1O)CCC(C)(C#Cc1ccc3c(c1)N(C(=O)C(F)(F)F)CCO3)O2` (racemic) [Example 45, rac-3,4-Dihydro-6-[(3,4-dihydro-6-hydroxy-2,5,7,8-tetramethyl2H-1-benzopyran-2-yl)ethynyl]-4(trifluoroacetyl)-2H-1,4-benzoxazine], 45 nM.
